# Assay results as given in ChEMBL document CHEMBL3886310, “Pyrrolidine derivatives, pharmaceutical compositions and uses thereof” (2015).
# Target: Acetyl-CoA carboxylase 2 (Homo sapiens, UniProt O00763)
# Assay: Spectrophotometric 384 Well Assay: Assay reactions are then carried out in 384-well plates, with hACC2 in an appropriate dilution and at final assay concentrations (f.c.) of 100 mM Tris (pH 7.5), 10 mM trisodium citrate, 25 mM KHCO3, 10 mM MgCl2, 0.5 mg/ml BSA, 3.75 mM reduced L-glutathione, 15 U/ml lactate dehydrogenase, 0.5 mM phosphoenolpyruvate, 15 U/ml pyruvate kinase, compounds at different concentrations at final DMSO concentrations of 1%.The enzymatic reaction is then started by addition of a mixture of NADH, acetyl Coenzyme A (both 200 μM f.c.) and ATP (500 uM f.c.). The decrease of the optical density (slope S) is then determined at 25° C. at a wavelength of 340 nm over 15 minutes in a spectrophotometric reader.
# Sequence of Acetyl-CoA carboxylase 2 (O00763 whole entry): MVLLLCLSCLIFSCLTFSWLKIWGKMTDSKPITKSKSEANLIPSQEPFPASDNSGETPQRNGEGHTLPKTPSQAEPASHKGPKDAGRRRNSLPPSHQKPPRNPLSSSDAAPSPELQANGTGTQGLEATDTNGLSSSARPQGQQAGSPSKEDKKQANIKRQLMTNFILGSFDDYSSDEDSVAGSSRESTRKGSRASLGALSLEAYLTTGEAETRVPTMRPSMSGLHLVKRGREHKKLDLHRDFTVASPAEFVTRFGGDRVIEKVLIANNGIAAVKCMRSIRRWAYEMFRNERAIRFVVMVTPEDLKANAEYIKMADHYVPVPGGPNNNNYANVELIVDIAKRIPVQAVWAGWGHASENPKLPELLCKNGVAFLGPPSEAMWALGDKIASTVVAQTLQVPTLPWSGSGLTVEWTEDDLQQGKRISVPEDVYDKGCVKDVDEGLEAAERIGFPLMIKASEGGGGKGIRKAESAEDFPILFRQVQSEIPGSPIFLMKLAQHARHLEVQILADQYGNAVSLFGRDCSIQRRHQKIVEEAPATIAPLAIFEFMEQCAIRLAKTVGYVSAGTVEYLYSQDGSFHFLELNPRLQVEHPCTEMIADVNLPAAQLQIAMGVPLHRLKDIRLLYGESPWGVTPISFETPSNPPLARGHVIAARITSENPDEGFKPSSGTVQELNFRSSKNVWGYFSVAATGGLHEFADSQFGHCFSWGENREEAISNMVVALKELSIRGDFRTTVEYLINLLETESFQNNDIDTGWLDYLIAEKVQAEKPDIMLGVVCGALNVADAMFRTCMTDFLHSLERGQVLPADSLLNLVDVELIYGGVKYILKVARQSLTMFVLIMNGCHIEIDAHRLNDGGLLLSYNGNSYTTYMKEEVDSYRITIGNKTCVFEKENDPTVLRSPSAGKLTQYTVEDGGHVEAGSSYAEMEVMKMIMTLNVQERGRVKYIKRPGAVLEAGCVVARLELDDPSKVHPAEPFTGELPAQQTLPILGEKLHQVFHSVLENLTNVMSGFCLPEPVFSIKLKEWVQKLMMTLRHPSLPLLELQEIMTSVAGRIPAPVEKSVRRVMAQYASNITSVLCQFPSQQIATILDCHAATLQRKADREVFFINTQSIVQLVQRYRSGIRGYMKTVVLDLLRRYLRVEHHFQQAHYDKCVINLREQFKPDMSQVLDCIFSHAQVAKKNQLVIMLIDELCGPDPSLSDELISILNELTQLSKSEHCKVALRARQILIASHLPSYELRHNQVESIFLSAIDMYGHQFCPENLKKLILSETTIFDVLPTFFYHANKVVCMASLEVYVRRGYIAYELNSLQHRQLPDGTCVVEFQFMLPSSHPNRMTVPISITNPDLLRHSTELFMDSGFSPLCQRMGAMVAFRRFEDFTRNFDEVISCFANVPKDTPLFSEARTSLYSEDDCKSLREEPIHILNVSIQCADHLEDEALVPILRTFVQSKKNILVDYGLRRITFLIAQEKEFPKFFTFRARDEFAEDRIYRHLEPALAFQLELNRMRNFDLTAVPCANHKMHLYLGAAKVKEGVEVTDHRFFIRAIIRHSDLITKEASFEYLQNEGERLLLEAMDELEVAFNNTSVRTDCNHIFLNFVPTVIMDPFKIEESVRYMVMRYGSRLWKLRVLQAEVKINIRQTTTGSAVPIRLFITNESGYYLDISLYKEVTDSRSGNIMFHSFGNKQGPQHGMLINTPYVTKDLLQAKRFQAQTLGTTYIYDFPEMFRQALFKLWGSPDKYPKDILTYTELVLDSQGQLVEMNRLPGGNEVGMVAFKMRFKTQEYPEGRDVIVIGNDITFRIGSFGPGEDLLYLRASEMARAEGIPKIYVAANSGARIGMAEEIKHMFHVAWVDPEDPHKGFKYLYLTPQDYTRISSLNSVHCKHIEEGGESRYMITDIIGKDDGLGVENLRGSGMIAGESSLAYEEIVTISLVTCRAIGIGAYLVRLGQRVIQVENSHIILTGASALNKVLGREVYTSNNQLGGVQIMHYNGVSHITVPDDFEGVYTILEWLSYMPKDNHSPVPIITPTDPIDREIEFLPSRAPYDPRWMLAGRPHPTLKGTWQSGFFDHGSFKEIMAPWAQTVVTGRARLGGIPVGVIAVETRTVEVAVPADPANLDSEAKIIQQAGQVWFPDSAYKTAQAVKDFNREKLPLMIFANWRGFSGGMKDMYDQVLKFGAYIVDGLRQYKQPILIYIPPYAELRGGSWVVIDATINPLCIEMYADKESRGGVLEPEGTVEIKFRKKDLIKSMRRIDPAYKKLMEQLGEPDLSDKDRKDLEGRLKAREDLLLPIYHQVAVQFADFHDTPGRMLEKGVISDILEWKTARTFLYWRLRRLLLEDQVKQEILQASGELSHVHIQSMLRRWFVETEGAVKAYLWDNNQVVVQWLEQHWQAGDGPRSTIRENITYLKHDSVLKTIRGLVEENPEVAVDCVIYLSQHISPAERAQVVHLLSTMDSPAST
row,SMILES,IC50
1,COC(=O)N[C@@H](C)c1ccc(OC2CCN(c3ccc(OC(C)C)cc3)C2)cc1 (some centres not stated),1.36 µM
2,C[C@H](NC(=O)c1cn[nH]c1)c1ccc(O[C@@H]2CCN(c3ccc(OCC4CC4)cc3)C2)cc1,0.016 µM
